# Results taken from patent US9765074B2, “Inhibitors of the renal outer medullary potassium channel” (Merck Sharp & Dohme Corp., priority 2013, dated 2017).
# Molecular target: T1, hROMK (hKir1.1) (Homo sapiens, UniProt P48048)
# T1 construct: expressed in transfected cells
# T1 sequence (P48048 1-391): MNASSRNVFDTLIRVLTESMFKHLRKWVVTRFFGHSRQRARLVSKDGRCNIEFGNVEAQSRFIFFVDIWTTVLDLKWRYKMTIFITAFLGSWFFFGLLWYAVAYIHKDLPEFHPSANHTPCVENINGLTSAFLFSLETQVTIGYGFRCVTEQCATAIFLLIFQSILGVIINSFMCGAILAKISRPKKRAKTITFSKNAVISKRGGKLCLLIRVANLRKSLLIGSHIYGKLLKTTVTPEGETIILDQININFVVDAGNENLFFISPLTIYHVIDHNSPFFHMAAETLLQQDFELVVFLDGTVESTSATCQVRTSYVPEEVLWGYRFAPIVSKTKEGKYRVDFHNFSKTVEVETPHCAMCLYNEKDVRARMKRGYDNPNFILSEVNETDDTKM
# Test: Thallium Flux Assay (ROMK channel functional thallium flux, FLIPR-Tetra)
# Type: cell-based
# Conditions: HEK293 cells stably expressing hROMK (hKir1.1); 30 min compound incubation
# Outline: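 HEK293 cells stably expressing hKir1.1, loaded with FluxOR dye for 90 min, then preincubated with compound for 30 min at ambient temperature with 0.3 mM ouabain and probenecid. Stimulated with 3 mM thallium/0.3 mM potassium (final); fluorescence read ~10 min. Normalized to 3 μM reference ROMK inhibitor; IC50 from inhibition of flux.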
row,IC50 [nM],Compound
1,60,"COC1CN(C2=C(C)C(=O)OC2)C(=O)C12CCN(C[C@H](O)c1ccc(-n3cnnn3)nc1)CC2 (single isomer, unassigned) [Example 115]"
2,30,"CC1=C(N2CCC3(CCN(C[C@@H](F)c4ccc(-n5cnnn5)cn4)CC3)C2=O)COC1=O [Example 280, 8-{(2R)-2-fluoro-2-[5-(1H-tetrazol-1-yl)pyridin-2-yl]ethyl}-2-(4-methyl-5-oxo-2,5-dihydrofuran-3-yl)-1-oxo-2-aza-8-azoniaspiro[4.5]decane]"
3,120,"COC1CN(CCc2nnc(-n3cnnn3)cc2C)CCC12CCN(C1=C(C)C(=O)OC1)C2=O (single isomer, unassigned) [Example 260, 6-methoxy-2-(4-methyl-5-oxo-2,5-dihydrofuran-3-yl)-8-{2-[4-methyl-6-(1H-tetrazol-1-yl)pyridazin-3-yl]ethyl}-2,8-diazaspiro[4.5]decan-1-one]"
4,90,"CC1=C(N2CC(O)C3(CCN(C[C@H](O)c4ccc(-n5cnnn5)nc4)CC3)C2=O)COC1=O (single isomer, unassigned) [Example 111]"
5,80,"CC1=C(N2C(=O)C3(CCN(C[C@H](O)c4ncc(-n5cnnn5)cc4C)CC3)CC2C)COC1=O (single isomer, unassigned) [Example 137]"
6,20,"CC1=C(N2CC(O)C3(CCN(CCc4ccc(-n5cnnn5)nc4)CC3)C2=O)COC1=O (single isomer, unassigned) [Example 245, 4-hydroxy-2-(4-methyl-5-oxo-2,5-dihydrofuran-3-yl)-1-oxo-8-{2-[6-(1H-tetrazol-1-yl)pyridin-3-yl]ethyl}-2-aza-8-azoniaspiro[4.5]decane]"
7,10,"CC1=C(N2CCC3(CCN(CCc4cnc(-n5cnnn5)cn4)CC3)C2=O)COC1=O [Example 234, 2-(4-methyl-5-oxo-2,5-dihydrofuran-3-yl)-1-oxo-8-{2-[5-(1H-tetrazol-1-yl)pyrazin-2-yl]ethyl}-2-aza-8-azoniaspiro[4.5]decane]"
8,120,"COC1CN(CCc2ccc(-n3cnnn3)nn2)CCC12CCN(C1=C(C)C(=O)OC1)C2=O (single isomer, unassigned) [Example 258, 6-methoxy-2-(4-methyl-5-oxo-2,5-dihydrofuran-3-yl)-8-{2-[6-(1H-tetrazol-1-yl)pyridazin-3-yl]ethyl}-2,8-diazaspiro[4.5]decan-1-one]"
9,10,"CC1=C(N2CCC3(CCN(CCc4ccc(-n5cnnn5)cn4)CC3)C2=O)COC1=O [Example 238, 2-(4-methyl-5-oxo-2,5-dihydrofuran-3-yl)-1-oxo-8-{2-[5-(1H-tetrazol-1-yl)pyridin-2-yl]ethyl}-2-aza-8-azoniaspiro[4.5]decane]"
10,140,"CO[C@H](CN1CCC2(CC1)CCN(C1=C(C)C(=O)OC1)C2=O)c1cnc(-n2cnnn2)cn1 [Example 281, 8-{(2R)-2-methoxy-2-[5-(1H-tetrazol-1-yl)pyrazin-2-yl]ethyl}-2-(4-methyl-5-oxo-2,5-dihydrofuran-3-yl)-1-oxo-2-aza-8-azoniaspiro[4.5]decane]"
11,50,"O=C1C=C(N2C(=O)C3(CCN(C[C@H](O)c4ccc(-n5cnnn5)cn4)CC3)CC2C2CC2)CO1 (mixture of isomers) [Example 223, 3-cyclopropyl-8-{(2S)-2-hydroxy-2-[5-(1H-tetrazol-1-yl)pyridin-2-yl]ethyl}-2-(5-oxo-2,5-dihydrofuran-3-yl)-2,8-diazaspiro[4.5]decan-1-one]"
12,100,"COC1CN(CCc2ccc(-n3cnnn3)nn2)CCC12CCN(C1=C(C)C(=O)OC1)C2=O (single isomer, unassigned) [Example 257, 6-methoxy-2-(4-methyl-5-oxo-2,5-dihydrofuran-3-yl)-8-{2-[6-(1H-tetrazol-1-yl)pyridazin-3-yl]ethyl}-2,8-diazaspiro[4.5]decan-1-one]"
13,30,"CC1=C(N2CC(O)C3(CCN(CCc4ccc(-n5cnnn5)nc4)CC3)C2=O)COC1=O (single isomer, unassigned) [Example 244, 4-hydroxy-2-(4-methyl-5-oxo-2,5-dihydrofuran-3-yl)-1-oxo-8-{2-[6-(1H-tetrazol-1-yl)pyridin-3-yl]ethyl}-2-aza-8-azoniaspiro[4.5]decane]"
14,10,"Cc1nc(-n2cnnn2)cnc1C(O)CN1CCC2(CC1)C[C@H](C)N(C1=CC(=O)OC1)C2=O (mixture of isomers) [Example 165, (3S)-8-{2-hydroxy-2-[3-methyl-5-(1H-tetrazol-1-yl)pyrazin-2-yl]ethyl}-3-methyl-2-(5-oxo-2,5-dihydrofuran-3-yl)-2,8-diazaspiro[4.5]decan-1-one]"
15,50,"COC1CN(C2=CC(=O)OC2)C(=O)C12CCN(C[C@H](O)c1ccc(-n3cnnn3)nc1)CC2 (mixture of isomers) [Example 206, 8-((R)-2-(6-(1H-tetrazol-1-yl)pyridin-3-yl)-2-hydroxyethyl)-4-methoxy-2-(5-oxo-2,5-dihydrofuran-3-yl)-2,8-diazaspiro[4.5]decan-1-one]"
16,30,"COc1cc(-n2cnnn2)ncc1[C@@H](O)CN1CCC2(CC1)CCN(C1=C(C)C(=O)OC1)C2=O [Example 93, 8-{(2R)-2-hydroxy-2-[4-methoxy-6-(1H-tetrazol-1-yl)pyridin-3-yl]ethyl}-2-(4-methyl-5-oxo-2,5-dihydrofuran-3-yl)-1-oxo-2-aza-8-azoniaspiro[4.5]decane]"
17,20,"CC1=C(N2CCC3(CCN([C@H](CO)Cc4ccc(-n5cnnn5)nc4)CC3)C2=O)COC1=O (single isomer, unassigned) [Example 296]"
18,80,"CC1OC(=O)C=C1N1C(=O)C2(CCN(C[C@H](O)c3ccc(-n4cnnn4)nc3)CC2)C[C@H]1C (single isomer, unassigned) [Example 230]"

# Further lines, the compound ahead of its results:
row,Compound,IC50 [nM]
1,"CC1=C(N2C(=O)C3(CCN(C[C@@H](O)c4ccc(-n5cnnn5)nc4)CC3)CC2C)COC1=O (single isomer, unassigned) [Example 64]",50
2,"O=C1C=C(N2CCC3(CCN(C[C@@H](O)c4ccc(-n5cnnn5)nc4)CC3)C2=O)CO1 (single isomer, unassigned) [Example 2]",50
3,"CC1CC2(CC3CCC(C2)N3C[C@@H](O)c2cnc(-n3cnnn3)cn2)C(=O)N1C1=CC(=O)OC1 (single isomer, unassigned) [Example 92]",20
4,"CC1=C(N2CCC3(CCN(C[C@H](O)c4cnc(-n5cnnn5)nc4)CC3)C2=O)COC1=O [Example 17, 8-{(2R)-2-hydroxy-2-[2-(1H-tetrazol-1-yl)pyrimidin-5-yl]ethyl}-2-(4-methyl-5-oxo-2,5-dihydrofuran-3-yl)-1-oxo-2-aza-8-azoniaspiro[4.5]decane]",30
5,"CC1=C(N2CC(O)C3(CC4CCC(C3)N4C[C@@H](O)c3ccc(-n4cnnn4)nc3)C2=O)COC1=O (single isomer, unassigned) [Example 107]",110
6,"CC1=C(N2CCC3(CC4CCC(C3)N4CCc3ccc(-n4cnnn4)nn3)C2=O)COC1=O [Example 235, (1S,5S)-1′-(4-methyl-5-oxo-2,5-dihydrofuran-3-yl)-2′-oxo-8-{2-[6-(1H-tetrazol-1-yl)pyridazin-3-yl]ethyl}spiro[8-azoniabicyclo[3.2.1]octane-3,3′-pyrrolidine]]",10
7,"Cc1nc(-n2cnnn2)ccc1[C@@H](O)CN1CCC2(CC1)CCN(C1=CC(=O)OC1)C2=O [Example 3, 8-{(2R)-2-hydroxy-2-[2-methyl-6-(1H-tetrazol-1-yl)pyridin-3-yl]ethyl}-1-oxo-2-(5-oxo-2,5-dihydrofuran-3-yl)-2-aza-8-azoniaspiro[4.5]decane]",20
8,"C[C@H]1CC2(CCN(C[C@H](O)c3cnc(-n4cnnn4)cn3)CC2)C(=O)N1C1=CC(=O)OC1 [Example 77, (3S)-8-{(2S)-2-hydroxy-2-[5-(1H-tetrazol-1-yl)pyrazin-2-yl]ethyl}-3-methyl-1-oxo-2-(5-oxo-2,5-dihydrofuran-3-yl)-2-aza-8-azoniaspiro[4.5]decane]",10
9,"CC1=C(N2CCC3(CCN(C[C@@H](O)c4cnc(-n5cnnn5)c(C)n4)CC3)C2=O)COC1=O [Example 88, 8-{(2R)-2-hydroxy-2-[6-methyl-5-(1H-tetrazol-1-yl)pyrazin-2-yl]ethyl}-2-(4-methyl-5-oxo-2,5-dihydrofuran-3-yl)-1-oxo-2-aza-8-azoniaspiro[4.5]decane]",40
10,"CC1CC2(CC3CCC(C2)N3C[C@H](O)c2ccc(-n3cnnn3)nc2)C(=O)N1C1=CC(=O)OC1 (single isomer, unassigned) [Example 102]",10
11,"COC1CN(C2=C(C)C(=O)OC2)C(=O)C12CC1CCC(C2)N1C[C@H](O)c1ccc(-n2cnnn2)nc1 (single isomer, unassigned) [Example 161]",30
12,"CC1=C(N2CCC3(CCN(C[C@H](O)c4cnc(-n5cnnn5)cn4)CC3)C2=O)COC1=O [Example 24, 8-{(2S)-2-hydroxy-2-[5-(1H-tetrazol-1-yl)pyrazin-2-yl]ethyl}-2-(4-methyl-5-oxo-2,5-dihydrofuran-3-yl)-1-oxo-2-aza-8-azoniaspiro[4.5]decane]",20
13,"COC1CN(C2=C(C)C(=O)OC2)C(=O)C12CC1CCC(C2)N1C[C@H](O)c1ccc(-n2cnnn2)nc1 (single isomer, unassigned) [Example 108]",40
14,"C[C@H]1CC2(CCN(C[C@H](O)c3ccc(-n4cnnn4)nc3)CC2)C(=O)N1C1=CC(=O)OC1 [Example 81, (3S)-8-{(2R)-2-hydroxy-2-[6-(1H-tetrazol-1-yl)pyridin-3-yl]ethyl}-3-methyl-1-oxo-2-(5-oxo-2,5-dihydrofuran-3-yl)-2-aza-8-azoniaspiro[4.5]decane]",10
